The numbers were not newly measured in patent publication US9085562B2, “6-alkyl-N-(pyridin-2-yl)-4-aryloxypicolinamide analogs as mGluR5 negative allosteric modulators and methods of making and using the same” (Vanderbilt University, priority 2011, dated 2015), which cites them from elsewhere.

One data set has as its target T1, cytochrome P450 1A2 (Homo sapiens, UniProt P05177).
T1 sequence (P05177 1-516): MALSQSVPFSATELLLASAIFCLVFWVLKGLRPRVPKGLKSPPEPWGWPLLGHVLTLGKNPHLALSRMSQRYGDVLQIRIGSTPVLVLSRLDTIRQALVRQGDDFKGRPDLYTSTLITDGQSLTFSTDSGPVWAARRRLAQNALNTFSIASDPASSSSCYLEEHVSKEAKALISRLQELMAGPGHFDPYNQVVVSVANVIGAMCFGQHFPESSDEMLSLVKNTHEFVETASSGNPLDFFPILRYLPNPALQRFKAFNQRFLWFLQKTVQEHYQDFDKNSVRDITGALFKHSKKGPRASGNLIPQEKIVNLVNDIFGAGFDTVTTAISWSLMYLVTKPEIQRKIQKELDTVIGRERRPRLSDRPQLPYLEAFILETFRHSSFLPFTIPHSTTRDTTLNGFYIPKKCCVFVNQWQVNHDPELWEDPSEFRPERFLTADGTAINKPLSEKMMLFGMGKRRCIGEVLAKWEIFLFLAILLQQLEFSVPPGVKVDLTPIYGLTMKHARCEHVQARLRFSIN
To be noted: cited from earlier work.

For data set [1] the following is noted: intravenous administration to rhesus monkeys; cited from earlier work.

Take `Cc1nc(C#Cc2cccnc2)cs1` [MTEP, 3-[(2-methyl-1,3-thiazol-4-yl)ethynyl]pyridine]: the “inhibition of cytochrome P450 1A2” value at cytochrome P450 1A2 was “potent inhibitor of cytochrome P450 1A2”. Besides, in data set [1], the clearance entry is recorded as “efficiently cleared”.
